Results: patent US5736557A, “N,N-bis (quinolin-4-yl)-diamine derivatives, their preparation and their use as antimalarials” (Hoffman-La Roche, Inc., priority 1994, dated 1998)
Values after ≈ are worked out from the molar mass of the structure shown. Where two headings read alike, the source gives them in different places.

Key:
[1] = tested on: chloroquine-sensitive strains of the human-pathogenenic Plasmodium falciparum; test: Growth inhibition of chloroquine-sensitive Plasmodium falciparum strains in vitro; assay type: cell-based; settings: read-out: IC50 growth inhibition
Method: (§1) Test Method for the Determination of the Activity Against Plasmodium falciparum in vitro
(§2) The preparations are tested on intraerythrocytary stages of Plasmodium falciparum from asynchronous cultures according to the method of Desjardin et al. (Desjardins, R. E. et al: Quantitative assessment of antimalarial activity in vitro by a semiautomated microdilution technique. Antimicrob. Agents Chemother. 16, 710-718, (1979)).
(§3) The culture medium consists of RPMI 1640 with the addition of 25 mM HEPES, 25 mM NaHCO3, 100 μg/ml neomycin and […] (A^+). Human-A^+ erythrocytes are used as the Plasmodium falciparum host cells. The parasites are maintained at 37° C. in an atmosphere of 3% O2, 4% CO2, 9:3% N2 and 95% relative humidity.
(§4) In order to determine the activity, the preparations are dissolved in dimethyl sulphoxide, pre-diluted in the culture medium to a suitable starting concentration and subsequently titrated-out on to microtitre plates in the 2nd stage over 6-7 steps. After the addition of the parasite culture (0.7% parasitemia in 2.5% erythrocyte suspension) the test plates are incubated under the conditions given above for 48 h-72 h. The parasite growth in the different preparation concentrations is determined using [G--^3 H]-hypoxanthin incorporation compared to untreated control cultures on the same test plates. The 50% growth inhibition (IC50) is calculated according to logit regression analysis from the resulting dosage-activity curve.
(§5) The preparations are tested on at least one chloroquine-resistant and one chloroquine-sensitive Plasmodium falciparum strain. Additional sensitive and resistant strains are included for futher characterization.

[2] = tested on: chloroquine-resistant strains of the human-pathogenic Plasmodium falciparum; test: Growth inhibition of chloroquine-resistant Plasmodium falciparum strains in vitro; assay type: cell-based; settings: for IC50: Plasmodium falciparum; for Resistance index: ratio of average IC50 values for resistant strains and average values for sensitive strains
Method: as §1, §2, §3, §4, §5

Plasmodium berghei = test: Activity against Plasmodium berghei in vivo in mice; design: species or system Plasmodium berghei (strain ANKA) in mice; settings: mice; for inhibition in vivo at 10 mg/kg: percentage parasitemia reduction
Method: Test Method for the Determination of the Activity Against Plasmodium berghei in vivo
The preparations are tested on mice infected with malaria pathogens (Plasmodium berghei). Male albino mice (IBM:MORO(SPF), FUELLINSDORF) weighing about 25 g are used as the test animals. They are kept in climatized rooms at 21°-22° C. in groups of 5 animals per cage. They receive ad libitum a diet feed with a low PABA content (NAFAG FUTTER .COPYRGT. No. 9009 PAB-45, PABA content 45 mg/kg) and drinking water. On the first day of the test (DO) the test animals are infected with Plasmodium berghei (strain ANKA). For this there is used heparinized blood of a donor mouse with about 30% parasitemia, which is diluted with physiological saline such that it contains 10^8 parasitized erythrocytes per ml. 0.2 ml of this suspension is injected intravenously (i.v.) into the mice to be treated and into the control mice. In untreated control animals the parasitemia normally reaches 30-40% on the third day after the infection (D+3) and the test animals die between days +5 and +7.
The substances to be tested are dissolved or suspended in distilled water or in a mixture of 7% Tween 80, 3% alcohol (96%) and water. Usually, 0.25 ml of this solution or suspension is administered once subcutaneously and perorally to groups of 5 test animals. Treatment is effected 24 hours after the infection. 10 control animals are treated in the same manner with solvent or suspension medium per test.
All substances are tested in a first test in a single dosage of 10 mg/kg. Only those substances which in this test (10 mg/kg) have shown a parasitaemia reduction of 90% are used for the titration. Suitable dilutions of the test substance can be used to obtain an accurate titration of the activity.
48 hours after the treatment (D+3) blood smears are prepared from all animals using blood from tail veins and are stained with giemsa. The average erythrocyte infection rate (parasitemiea in %) in the control groups as well as in the groups which have been treated with the test compounds is determined by counting under a microscope. The difference in the average values of the infection rates of control group (100%) and treated groups is calculated and expressed as a percentage reduction (GI%). The ED50 or ED90 is determined mathematically by means of the JMP programme (nonlinear fit). The ED50 (ED90) in mg/kg is that dose which after single administration reduces the average erythrocyte infection rate by 50% (90%) in comparison to the control group.

[3] = HB3, strain HB3, chloroquine-sensitive
[4] = NF54, strain NF54, chloroquine-sensitive
[5] = strain FCH5C2, chloroquine-sensitive
[6] = strain RFMEF3, chloroquine-sensitive
[7] = strain Ro73, chloroquine-sensitive
[8] = read-out: IC50 growth inhibition, strain 7G8, chloroquine-resistant
[9] = read-out: IC50 growth inhibition, strain Indo, chloroquine-resistant
[10] = read-out: IC50 growth inhibition, strain ItG2F6, chloroquine-resistant
[11] = read-out: IC50 growth inhibition, strain K1, chloroquine-resistant
[12] = read-out: IC50 growth inhibition, strain RFCF3, chloroquine-resistant
[13] = read-out: IC50 growth inhibition, strain W2, chloroquine-resistant
[14] = read-out: IC50 growth inhibition, strain W2 Mef, chloroquine-resistant
[15] = po, single peroral dose 10 mg/kg, read-out: GI % at 10 mg/kg po
[16] = sc, single subcutaneous dose 10 mg/kg, read-out: GI % at 10 mg/kg sc

Compound	IC50 [1, 3] [ng/mL]	IC50 [1, 4] [ng/mL]	IC50 [1, 5] [ng/mL]	IC50 [1, 6] [ng/mL]	IC50 [1, 7] [ng/mL]	IC50 [2, 8] [ng/mL]	IC50 [2, 9] [ng/mL]	IC50 [2, 10] [ng/mL]	IC50 [2, 11] [ng/mL]	IC50 [2, 12] [ng/mL]	IC50 [2, 13] [ng/mL]	IC50 [2, 14] [ng/mL]	Resistance index [2]	inhibition in vivo at 10 mg/kg (Plasmodium berghei; [15]) [%]	ED50 (Plasmodium berghei; po, single peroral administration, read-out: ED50 po) [mg/kg]	inhibition in vivo at 10 mg/kg (Plasmodium berghei; [16]) [%]
Clc1ccc2c(N[C@H]3CC[C@@H](Nc4ccnc5cc(Cl)ccc45)CC3)ccnc2c1 [Example 5, cis-N,N'-Bis-(7-chloroquinolin-4-yl)-cyclohexane-1,4-diamine]	3.2 (≈ 0.00732 µM)	2.6 (≈ 0.00594 µM)	3.9 (≈ 0.00892 µM)	3.4 (≈ 0.00777 µM)	2.3 (≈ 0.00526 µM)	9 (≈ 0.0206 µM)	4.4 (≈ 0.0101 µM)	6.8 (≈ 0.0155 µM)	7.7 (≈ 0.0176 µM)	5.1 (≈ 0.0117 µM)	4.8 (≈ 0.011 µM)	6.5 (≈ 0.0149 µM)	2.1	98	1.5	99.9
C[C@H]1[C@@H](Nc2ccnc3cc(Cl)ccc23)CCC[C@H]1Nc1ccnc2cc(Cl)ccc12 [Example 8, cis,cis-N,N'-Bis-(7-chloroquinolin-4-yl)-2-methyl-cyclohexane-1,3-diamine]	6.1 (≈ 0.0135 µM)	7.7 (≈ 0.0171 µM)	6.1 (≈ 0.0135 µM)	6.3 (≈ 0.014 µM)	1.6 (≈ 0.00354 µM)	9.4 (≈ 0.0208 µM)	6.4 (≈ 0.0142 µM)	6.4 (≈ 0.0142 µM)	8.8 (≈ 0.0195 µM)	4.6 (≈ 0.0102 µM)	5.6 (≈ 0.0124 µM)	9.1 (≈ 0.0202 µM)	1.3	66		67
